Assay results: patent publication US6881841B2, “Dibenzosuberanyl piperazine derivatives and drug-resistance overcoming agents containing the derivatives” (priority 2000, dated 2005)

Experiments:
[1] = test system: Chloroquine-resistant malaria plasmodium Plasmodium chabaudi (AS strain: chloroquine-resistant (3CQ)); assay: Test 1: resistance overcoming effect, in vivo test with chloroquine-resistant mouse malaria strain; conditions: ICR male mice, days 0-3, counted on 5th day; for number of PRBCs per 10,000 red blood cells, Chloroquine 3 mg: test compound 50 mg/kg i.p. + chloroquine 3 mg/kg i.p.; for number of PRBCs per 10,000 red blood cells, Chloroquine 3 mg / number of PRBCs per 10,000 red blood cells, Chloroquine 2 mg: Control = chloroquine only; for number of PRBCs per 10,000 red blood cells, Chloroquine 0 mg: test compound 50 mg/kg i.p. + chloroquine 0 mg/kg i.p.; for number of PRBCs per 10,000 red blood cells, Chloroquine 2 mg: test compound 50 mg/kg i.p. + chloroquine 2 mg/kg i.p.
Experimental: With respect to Compounds 1 to 7, these invention compounds were tested for their resistance overcoming effect in an in vivo test making use of a chloroquine-resistant mouse malaria strain. The test was conducted following the following procedure.
Chloroquine-resistant malaria plasmodium Plasmodlium chabaudi (AS strain: chloroquine-resistant (3CQ)); and
Mice: ICR male mice of 4-5 weeks old (20 to 25 g)
(§1) • 1) Preparation of the compounds: Each test compound was dissolved beforehand in 1/10 volume of DMSO such that the dose of the compound to each mouse per administration would become a final concentration of 50 mg/kg/0.2 mL. The resulting solution was diluted with 0.85% physiological saline to provide a 10% DMSO suspension. • 2) Inoculation with the chloroquine-resistant malaria plasmodium, Plasmodium chabaudi (AS strain: chloroquine-resistant (3CQ): Parasitized red blood cells (PRBCs) (5×10^6 (the 6th power of 10) cells/0.2 mL) were also prepared with 0.85% physiological saline, and inoculated through the caudal vein of each mouse with a 26×½-gauge tuberculin needle. • 3) Administration of the compounds and chloroquine: Two hours after the inoculation with the plasmodium, each test compound (50 mg/kg/0.2 mL) was intraperitoneally administered with 21×½-gauge needles to three groups of mice per compound. Chloroquine solutions of three concentrations, which had been prepared with 0.85% physiological saline to give final concentrations of 0 mg/kg/0.1 mL, 2 mg/kg/0.1 mL and 3 mg/kg/0.1 mL, respectively, were then also administered intraperitoneally with 26×½-gauge tuberculin needles to the three groups of mice which had been administered with the compound. To three control groups, the three chloroquine solutions were only administered, respectively. The compound and chloroquine were administered four times in total, that is, on the 0th, 1st, 2nd and 3rd days after the inoculation with the plasmodium. • 4) Determination of effect: Every day after the inoculation with the plasmodium, the tail of each mouse was cut to a minimum at the tip thereof with scissors to cause bleeding, and a Giemsa staining specimen smeared with a thin film of the blood was prepared. On the 5th day, the number of PRBCs per 10,000 red blood cells was counted, and based on a comparison of the PRBC number with the corresponding number of the group administered only with chloroquine, the chloroquine resistance overcoming effect of the test compound was determined.

[2] = test system: Chloroquine-resistant malaria plasmodium Plasmodium chabaudi (AS strain: chloroquine-resistant (3CQ)); assay: Test 2: resistance overcoming effect of Compound 8, as Test 1 but determined on the fourth day; assay type: in vivo; conditions: for number of PRBCs per 10,000 red blood cells, Chloroquine 2 mg: test compound 50 mg/kg i.p. + chloroquine 2 mg/kg i.p.; for number of PRBCs per 10,000 red blood cells, Chloroquine 2 mg / number of PRBCs per 10,000 red blood cells, Chloroquine 3 mg: Control = chloroquine only; for number of PRBCs per 10,000 red blood cells, Chloroquine 3 mg: test compound 50 mg/kg i.p. + chloroquine 3 mg/kg i.p.
Experimental: as §1
Resistance overcoming effect of Compound 8 was tested in a similar manner as in Test 1. The time of determination of the effect was set on the fourth day.

[3] = ICR male mice, days 0-3, determined on fourth day

Row | SMILES | number of PRBCs per 10,000 red blood cells, Chloroquine 3 mg [1] | melting point [°C] | number of PRBCs per 10,000 red blood cells, Chloroquine 0 mg [1] | number of PRBCs per 10,000 red blood cells, Chloroquine 2 mg [1] | number of PRBCs per 10,000 red blood cells, Chloroquine 0 mg ([2]; ICR male mice, test compound 50 mg/kg i.p. + chloroquine 0 mg/kg i.p., days 0-3, determined on fourth day) | number of PRBCs per 10,000 red blood cells, Chloroquine 2 mg [2, 3] | number of PRBCs per 10,000 red blood cells, Chloroquine 3 mg [2, 3] | chloroquine resistance overcoming effect (in words) ([2]; conclusion from Table 2)
1 | C=CC(CO)N1CCN(C2c3ccccc3CCc3ccccc32)CC1 (centres unmarked) [Compound 5, 1-Dibenzosuberanyl-4-(1-hydroxybutan-3-en-2-yl)piperazine] | 0 per 10,000 red blood cells | 123 |  |  |  |  |  | 
2 | C=CCCC(O)CN1CCN(C2c3ccccc3CCc3ccccc32)CC1 (centres unmarked) [Compound 3, 1-Dibenzosuberanyl-4-(2-hydroxy-5-hexenyl)-piperazine] | 292 per 10,000 red blood cells |  | 4500 per 10,000 red blood cells |  |  |  |  | 
3 | C=CCCCCCCC(O)CN1CCN(C2c3ccccc3CCc3ccccc32)CC1 (centres unmarked) [Compound 1, 1-Dibenzosuberanyl-4-(2-hydroxydecan-9-en-1-yl)piperazine] | 280 per 10,000 red blood cells |  | 4250 per 10,000 red blood cells | 3100 per 10,000 red blood cells |  |  |  | 
4 | CCCCCCCCC(O)CN1CCN(C2c3ccccc3CCc3ccccc32)CC1 (centres unmarked) [Compound 8, 1-Dibenzosuberanyl-4-(2-hydroxydecanyl)piperazine] |  |  |  |  | 7475 per 10,000 red blood cells | 4875 per 10,000 red blood cells | 3025 per 10,000 red blood cells | overcoming of chloroquine resistance
5 | C=CC(O)CN1CCN(C2c3ccccc3CCc3ccccc32)CC1 (centres unmarked) [Compound 4, 1-Dibenzosuberanyl-4-(2-hydroxy-3-butenyl)-piperazine] | 0 per 10,000 red blood cells | 93 | 8000 per 10,000 red blood cells | 430 per 10,000 red blood cells |  |  |  | 
6 | CCN(CC)CCCC(C)Nc1ccnc2cc(Cl)ccc12 (centres unmarked) [Control, chloroquine, reference compound] | 3750 per 10,000 red blood cells |  |  | 4900 per 10,000 red blood cells |  | 4525 per 10,000 red blood cells | 3600 per 10,000 red blood cells | 
7 | OCC#CCN1CCN(C2c3ccccc3CCc3ccccc32)CC1 |  | 129 |  |  |  |  |  | 
8 | C=CCCCCC(O)CN1CCN(C2c3ccccc3CCc3ccccc32)CC1 (centres unmarked) [Compound 2, 1-Dibenzosuberanyl-4-(2-hydroxy-7-octenyl)-piperazine] | 0 per 10,000 red blood cells |  | 8450 per 10,000 red blood cells | 0 per 10,000 red blood cells |  |  |  | 
